Patent US12018023B2 (NERVIANO MEDICAL SCIENCES S.R.L., priority 2018, dated 2024)

Assays:
Format in all cases: biochemical
IDH1^R132C = target: T1, IDH1^R132C (Homo sapiens, UniProt O75874, R132C); assay: NADPH depletion assay, IDH1 R132C
T1 construct: purchased not specified
Procedure, shortened: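 IDH1 R132C (2 nM) preincubated 15 min at RT with compound in Tris-HCl pH 7.6/MgCl2 buffer, then 60 min RT with NADPH and 0.14 mM alpha-ketoglutarate. Remaining NADPH read by diaphorase/resazurin fluorescence (Ex544/Em590).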

[1] = target: T2, IDH1^R132H homodimer enzyme (Homo sapiens, UniProt O75874, R132H); assay: NADPH depletion assay, IDH1 R132H
T2 construct: purchased not specified
T2 sequence (O75874 whole entry R132H): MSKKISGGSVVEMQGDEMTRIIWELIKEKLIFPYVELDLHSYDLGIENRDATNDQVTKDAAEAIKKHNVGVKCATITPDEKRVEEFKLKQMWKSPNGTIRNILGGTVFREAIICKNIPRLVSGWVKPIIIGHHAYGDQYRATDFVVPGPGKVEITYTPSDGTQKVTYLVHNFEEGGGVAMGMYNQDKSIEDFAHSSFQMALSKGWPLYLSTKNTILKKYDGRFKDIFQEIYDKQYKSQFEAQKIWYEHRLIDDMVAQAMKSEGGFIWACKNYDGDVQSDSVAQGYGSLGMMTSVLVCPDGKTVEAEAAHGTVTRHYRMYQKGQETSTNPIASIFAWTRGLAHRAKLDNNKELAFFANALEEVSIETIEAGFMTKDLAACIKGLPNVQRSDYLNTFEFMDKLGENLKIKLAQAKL
Procedure, shortened: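 IDH1 R132H enzyme (8 nM as diluted) in Tris-HCl pH 7.6 with 10 mM MgCl2, 0.001% Triton X-100 and 4 mM β-mercaptoethanol is preincubated 15 min at RT with compound. Substrate mix (12 uM NADPH, 3.4 mM α-ketoglutarate) is added for 60 min; remaining NAD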

IDH2^R172K = target: T3, IDH2^R172K (Homo sapiens, UniProt P48735, R172K); assay: NADPH depletion assay, IDH2 R172K
T3 construct: purchased not specified
T3 sequence (P48735 40-452 R172K): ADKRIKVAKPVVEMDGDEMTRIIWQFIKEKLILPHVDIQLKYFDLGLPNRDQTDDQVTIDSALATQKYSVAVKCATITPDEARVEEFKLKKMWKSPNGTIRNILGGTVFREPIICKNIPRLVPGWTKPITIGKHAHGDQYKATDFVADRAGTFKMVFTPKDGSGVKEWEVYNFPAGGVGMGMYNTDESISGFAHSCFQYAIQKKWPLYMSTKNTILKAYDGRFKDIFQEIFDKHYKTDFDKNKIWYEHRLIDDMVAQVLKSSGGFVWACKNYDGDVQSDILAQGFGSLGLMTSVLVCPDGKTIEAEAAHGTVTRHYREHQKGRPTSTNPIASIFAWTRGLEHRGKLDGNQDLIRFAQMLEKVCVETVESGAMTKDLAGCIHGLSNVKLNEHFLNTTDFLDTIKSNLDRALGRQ
Experimental: IDH mutated enzyme activity converting alpha-ketoglutarate to 2-hydroxyglutaric acid is measured using a NADPH depletion assay. In the assay the remaining cofactor is measured at the end of the reaction with the addition of a catalytic excess of diaphorase and resazurin, to generate a fluorescent signal in proportion to the amount of NADPH remaining. IDH1 WT enzyme as well as mutated isoforms IDH1^R132H, IDH1^R132C, and IDH^2R172K enzymes are commercially available proteins (see e.g. Sino Biological, Abcam, Active Motif or Creative BioMart).
IDH1^R132H homodimer enzyme are diluted to 8 nM, in 10 μL of Assay Buffer (150 mM NaCl, 50 mM Tris-HCl pH 7.6, 10 mM MgCl2, 0.001% Triton X-100, 4 mM β-mercaptoethanol); 0.2 uL of test compound, previously serially diluted 1 to 3, >10 experimental points from 1 mM in DMSO, is added and the mixture is incubated for 15 minutes at room temperature. The reaction is started with the addition of 10 μL of Substrate Mix (12 uM NADPH, 3.4 mM alpha-ketoglutarate in Assay Buffer) and the mixture is incubated for 60 minutes at room temperature. The reaction is terminated with the addition of 5 μl of Detection Buffer (100 μg/mL diaphorase, 30 μM resazurin, in IX Assay Buffer), and is incubated for 15 minute before reading on a ViewLux as platereader at Ex544/Em590.
Compounds are assayed for their activity against IDH2^R172K following the same assay as above with the following modifications: IDH2^R172K and alpha-ketoglutarate final concentrations in the Assay Buffer is 16 nM and 0.55 mM, respectively.

T1 sequence (O75874 whole entry R132C): as the sequence (O75874 whole entry R132H) above, with H132C counted along it

`C=CC(=O)N1CCN(Cc2ccc([C@H](C)Nc3ncc4ccc(=O)n([C@@H](C)CO)c4n3)cc2)CC1` [cpd 199, 2-{[(1S)-1-{4-[(4-acryloylpiperazin-1-yl)methyl]phenyl}ethyl]amino}-8-[(2S)-1-hydroxypropan-2-yl]pyrido[2,3-d]pyrimidin-7(8H)-one] gave an IC50 (IDH1^R132C) of 1530 nM, an IC50 [1] of 1400 nM and an IC50 (IDH2^R172K) of 717 nM.
With `C[C@H](Nc1ncc2ccc(=O)n(Cc3ccc(F)c(F)c3)c2n1)c1ccc(Cl)cc1` [cpd 23, 2-{[(1S)-1-(4-chlorophenyl)ethyl]amino}-8-(3,4-difluorobenzyl)pyrido[2,3-d]pyrimidin-7(8H)-one] the IC50 (IDH1^R132C) was 891 nM, the IC50 [1] was 2090 nM and the IC50 (IDH2^R172K) was 3490 nM.
`COC(=O)c1ccc([C@H](C)Nc2ncc3ccc(=O)n(Cc4ccc(F)cc4)c3n2)cc1` [cpd 6, methyl 4-[(1S)-1-{[8-(4-fluorobenzyl)-7-oxo-pyrido[2,3-d]pyrimidin-2-yl]amino}ethyl]benzoate] gave an IC50 (IDH1^R132C) of 1340 nM, an IC50 [1] of 3340 nM and an IC50 (IDH2^R172K) of 6650 nM.
With `CCC(C)n1c(=O)ccc2cnc(N[C@@H](C)c3ccc(CN4CCCC(F)(F)C4)cc3)nc21` (stereo partly drawn) [cpd 61, 8-(butan-2-yl)-2-{[(1S)-1-{4-[(3,3-difluoropiperidin-1-yl)methyl]phenyl}ethyl]amino}pyrido[2,3-d]pyrimidin-7(8H)-one] the IC50 (IDH1^R132C) was 38 nM, the IC50 [1] was 71 nM and the IC50 (IDH2^R172K) was 5020 nM.
`CC(Nc1ncc2ccc(=O)n(Cc3c(F)cccc3F)c2n1)c1ccc(CN2CCC(F)(F)CC2)cc1` (stereo not shown) [cpd 98, 8-(2,6-difluorobenzyl)-2-[(1-{4-[(4,4-difluoropiperidin-1-yl)methyl]phenyl}ethyl)amino]pyrido[2,3-d]pyrimidin-7(8H)-one] gave an IC50 (IDH1^R132C) of 217 nM, an IC50 [1] of 366 nM and an IC50 (IDH2^R172K) of 5340 nM.
`C[C@H](Nc1ncc2ccc(=O)n(CC(C)(C)C)c2n1)c1ccc(CN2CCC(F)(F)C2)cc1` [cpd 148, 2-{[(1S)-1-{4-[(3,3-difluoropyrrolidin-1-yl)methyl]phenyl}ethyl]amino}-8-(2,2-dimethylpropyl)pyrido[2,3-d]pyrimidin-7(8H)-one] was tested, and the IC50 (IDH1^R132C) was 109 nM, the IC50 [1] was 187 nM and the IC50 (IDH2^R172K) was 5830 nM.
`C[C@H](Nc1ncc2ccc(=O)n(CC(F)(F)F)c2n1)c1ccc(CN2CCC(F)(F)CC2)cc1` [cpd 106, 2-{[(1S)-1-{4-[(4,4-difluoropiperidin-1-yl)methyl]phenyl)ethyl]amino)-8-(2,2,2-trifluoroethyl)pyrido[2,3-d]pyrimidin-7(8H)-one] was tested, and the IC50 (IDH1^R132C) was 667 nM, the IC50 [1] was 1230 nM and the IC50 (IDH2^R172K) was 2910 nM.
Molecule `C[C@H](Nc1ncc2ccc(=O)n(CC(C)(C)C)c2n1)c1ccc(Br)cc1` [cpd 34, 2-{[(1S)-1-(4-bromophenyl)ethyl]amino}-8-(2,2-dimethylpropyl)pyrido[2,3-d]pyrimidin-7(8H)-one] has an IC50 (IDH1^R132C) of 135 nM, an IC50 [1] of 219 nM and an IC50 (IDH2^R172K) of 3350 nM.
With `C[C@H](Nc1ncc2ccc(=O)n(CC(C)(C)C)c2n1)c1ccc(CN2CCC(F)(F)CC2)cc1F` [cpd 152, 2-{[(1S)-1-{4-[(4,4-difluoropiperidin-1-yl)methyl]-2-fluorophenyl}ethyl]amino}-8-(2,2-dimethylpropyl)pyrido [2,3-d]pyrimidin-7(8H)-one] the IC50 (IDH1^R132C) was 65 nM, the IC50 [1] was 158 nM and the IC50 (IDH2^R172K) was 5620 nM.
In the case of `CCCn1c(=O)ccc2cnc(N[C@@H](C)c3ccc(CN4CCC(F)(F)CC4)cc3)nc21` [cpd 101, 2-{[(1S)-1-{4-[(4,4-difluoropiperidin-1-yl)methyl]phenyl}ethyl]amino}-8-propylpyrido[2,3-d]pyrimidin-7(8H)-one], the IC50 (IDH1^R132C) is reported as 271 nM, the IC50 [1] is reported as 575 nM and the IC50 (IDH2^R172K) is reported as 2670 nM.
`C=CC(=O)N1CC=C(c2ccc([C@H](C)Nc3ncc4ccc(=O)n([C@@H](C)C(C)C)c4n3)nc2)CC1` [cpd 194, 2-{[(1S)-1-(1′-acryloyl-1′,2′,3′,6′-tetrahydro-3,4′-bipyridin-6-yl)ethyl]amino}-8-[(2S)-3-methylbutan-2-yl]pyrido [2,3-d]pyrimidin-7(8H)-one] showed an IC50 (IDH1^R132C) of 200 nM, an IC50 [1] of 338 nM and an IC50 (IDH2^R172K) of 1790 nM.
`C=CC(=O)N1CCC(NC(=O)c2ccc([C@H](C)Nc3ncc4ccc(=O)n(C(C)C)c4n3)cc2F)CC1` [cpd 192, N-(1-acryloylpiperidin-4-yl)-2-fluoro-4-[(1S)-1-{[7-oxo-8-(propan-2-yl)-7,8-dihydropyrido[2,3-d]pyrimidin-2-yl]amino}ethyl]benzamide] was tested, and the IC50 (IDH1^R132C) was 252 nM, the IC50 [1] was 227 nM and the IC50 (IDH2^R172K) was 645 nM.
For `CC(C)Cn1c(=O)ccc2cnc(N[C@@H](C)c3ccc(CN4CCC(F)(F)CC4)cc3)nc21` [cpd 95, 2-{[(1S)-1-{4-[(4,4-difluoropiperidin-1-yl)methyl]phenyl}ethyl]amino}-8-(2-methylpropyl)pyrido[2,3-d]pyrimidin-7(8H)-one], the IC50 (IDH1^R132C) was 162 nM, the IC50 [1] was 425 nM and the IC50 (IDH2^R172K) was 5160 nM.
For `C=CC(=O)N1CCN(Cc2ccc([C@H](C)Nc3ncc4ccc(=O)n([C@@H](C)CF)c4n3)cc2)CC1` [cpd 198, 2-{[(1S)-1-{4-[(4-acryloylpiperazin-1-yl)methyl]phenyl}ethyl]amino}-8-[(2S)-1-fluoropropan-2-yl]pyrido[2,3-d]pyrimidin-7(8H)-one], the IC50 (IDH1^R132C) was 401 nM, the IC50 [1] was 132 nM and the IC50 (IDH2^R172K) was 248 nM.
`C[C@H](Nc1ncc2ccc(=O)n(Cc3ccc(F)cc3)c2n1)c1ccc(Cl)cc1` [cpd 28, 2-{[(1S)-1-(4-chlorophenyl)ethyl]amino}-8-(4-fluorobenzyl)pyrido[2,3-d]pyrimidin-7(8H)-one] showed an IC50 (IDH1^R132C) of 590 nM, an IC50 [1] of 1480 nM and an IC50 (IDH2^R172K) of 2510 nM.
`C[C@H](Nc1ncc2ccc(=O)n(Cc3cccc(O)c3)c2n1)c1ccc(Cl)cc1` [cpd 71, 2-{[(1S)-1-(4-chlorophenyl)ethyl]amino}-8-(3-hydroxybenzyl)pyrido[2,3-d]pyrimidin-7(8H)-one] was tested, and the IC50 (IDH1^R132C) was 964 nM, the IC50 [1] was 2480 nM and the IC50 (IDH2^R172K) was 4830 nM.
With `C[C@H](Nc1ncc2ccc(=O)n(Cc3ccc(C#N)cc3)c2n1)c1ccc(Cl)cc1` [cpd 27, 4-{[2-{[(1S)-1-(4-chlorophenyl)ethyl]amino}-7-oxopyrido[2,3-d]pyrimidin-8(7H)-yl]methyl}benzonitrile] the IC50 (IDH1^R132C) was 336 nM, the IC50 [1] was 1070 nM and the IC50 (IDH2^R172K) was 2600 nM.
`C[C@H](Nc1ncc2ccc(=O)n(CC(C)(C)CO)c2n1)c1ccc(Br)cc1` [cpd 35, 2-{[(1S)-1-(4-bromophenyl)ethyl]amino}-8-(3-hydroxy-2,2-dimethylpropyl)pyrido[2,3-d]pyrimidin-7(8H)-one] was tested, and the IC50 [1] was 211 nM and the IC50 (IDH2^R172K) was 5050 nM.
`C[C@H](Nc1ncc2ccc(=O)n(CC(C(F)(F)F)C(F)(F)F)c2n1)c1ccc(CN2CCC(F)(F)CC2)cc1` [cpd 108, 2-{[(1S)-1-{4-[(4,4-difluoropiperidin-1-yl)methyl]phenyl)ethyl]amino)-8-[3,3,3-trifluoro-2-(trifluoromethyl)propyl]pyrido[2,3-d]pyrimidin-7(8H)-one] gave an IC50 (IDH1^R132C) of 307 nM and an IC50 [1] of 459 nM.
`CC(C)[C@H](C)n1c(=O)ccc2cnc(N[C@@H](C)c3ccc(CN4CCN(C)C(=O)C4)cc3)nc21` [cpd 188, 8-[(2S)-3-methylbutan-2-yl]-2-{[(1S)-1-{4-[(4-methyl-3-oxopiperazin-1-yl)methyl]phenyl}ethyl]amino}-pyrido [2,3-d]pyrimidin-7(8H)-one] was tested, and the IC50 (IDH1^R132C) was 120 nM and the IC50 [1] was 330 nM.
`CCOC(=O)C(C)n1c(=O)ccc2cnc(N[C@@H](C)c3ccc(CN4CCCC(F)(F)C4)cc3)nc21` (stereo partly drawn) [cpd 63, ethyl 2-[2-{[(1S)-1-{4-[(3,3-difluoropiperidin-1-yl)methyl]phenyl}ethyl]amino}-7-oxopyrido[2,3-d]pyrimidin-8(7H)-yl]propanoate] showed an IC50 (IDH1^R132C) of 123 nM and an IC50 [1] of 290 nM.
In the case of `Cc1nc(N[C@@H](C)c2ccc(Cl)cc2)nc2c1ccc(=O)n2CC(C)C` [cpd 32, 2-{[(1S)-1-(4-chlorophenyl)ethyl]amino}-4-methyl-8-(2-methylpropyl)pyrido[2,3-d]pyrimidin-7(8H)-one], the IC50 (IDH1^R132C) is reported as 1150 nM and the IC50 [1] is reported as 3770 nM.
